Experimental data published in patent US12655125B2 (SIRONAX LTD., priority 2020, dated 2026).
pEC50: −log10 of the molar value.

System: HT-29 cells
Assay: HT29 Cells 0FBS Assay In Vitro (TNF-α/SMAC mimetic/zVAD-FMK induced necroptosis, CellTiter-Glo cell viability)
Assay type: cell-based
Details: Homo sapiens; HT-29 cells, FBS free medium, TNF-α (10 ng/ml), SMAC mimetic (6 uM), zVAD-FMK (10 μM), 20 hours; geometric mean EC50; read-out: Cell activity (EC50) of Compounds 1-116
Description: Protocol for HT29 Cells 0FBS Assay In Vitro
• Cell line: HT-29 (ATCC® HTB-38™) • Culture medium: McCOY's 5 A, Gibco, Cat No. 16600-082 • FBS, Gibco, Cat No. 10099-141C • Trypsin: Gibco, Cat No. 25200-056 • DMSO: Sigma, Cat No. 67-68-5, 1 L • Assay plate: Corning #3903 • Compound dilution plate: Corning #3357 • Inducers: TNFα, GenScript, Cat No. ZO1001-50, • SmacM, Cat. No., HY-15989, MedChemExpress (MCE) • Z_VAD FMK, TargetMol, T6013 • Cell Titer-Glo® Luminescent Cell Viability Assay Kit: Promega, Cat No. G7573 • EnVision: PerkinElmer, 2105-0010 2. Cell Seeding of HT-29 Cells • 1) HT-29 cells were checked every day to make sure they are healthy and growing as expected. They were split sub-culturing when were approximately 80% confluent. • 2) First pre-warm the culture medium of McCOY's 5 A medium (Gibco, Cat No. 16600-082) with 10% FBS (Gibco, Cat No. 10099-141C) in 37° C. water bath for at least 30 min. • 3) Growing cells to desired level of confluency 80% in a T75 flask, aspirate the medium, and wash with warm PBS two times. • 4) Add 2-3 ml fresh warm trypsin (Gibco, Cat No. 25200-056) solution. Transfer the flask to a 37° C. incubator. • 5) After 5 minutes, tap the side of the flask, and examine the flask under a microscope for lifting. If necessary, return the cells to the incubator for an additional 5-10 minutes, with occasional tapping, until lifting is complete. • 6) Quickly neutralize the trypsin reaction by adding 6-9 ml cell culture medium, then transfer the cells to sterile 15 ml conical tubes. Pellet the cells by centrifugation at 300×g for 7 minutes, then decant the supernatant. • 7) Resuspend the cells in fresh cell culture medium. Do cell counting with hemocytometer. • 8) Seed 100 μl of 5,000 cells into each well of the sterile 96-well cell culture plate (Corning 3903) and culture overnight at 37° C. with 5% C02. 3. Compounds Titration and Treatment of HT-29 Cells • 1) All batches of compounds (CPDs) (e.g., compound 1-281) were dissolved in DMSO (Dimethyl sulfoxide) as 20 mM stock solution. • 2) Take 3 ul 20 mM stock solution of CPDs to 27 ul DMSO and mix well, continue the titration ratio of 1:3 (20 ul CPDs+40 ul DMSO), e.g., to give solutions of CPDS at 6.6 mM, 2.2 mM, etc., till the 10 points end. • 3) Take out assay plates with HT-29 cells from incubator, remove all culture medium then wash 1 time with 1×PBS, and change fresh McCOY's 5 A medium of FBS free with a cocktail of TNF-α (10 ng/ml), the SMAC mimetic (6 uM) and zVAD-FMK (10 μM) to stimulate the HT-29 cells to increase pRIPK1 levels and necroptosis. • 4) Add 0.5 μL of the diluted compound to the corresponding 96-well assay plates. • 5) Incubate the assay plates for 20 hours at 37° C. with 5% C02. 4. Performing Cell Viability Detection of HT-29 Cells after Treated with Compounds • 1) The CellTiter-Glo® Luminescent Cell Viability Assay was employed to detect the ATP levels of viable HT-29 cells. • 2) Equilibrate the CellTiter-Glo® buffer and the lyophilized substrate to room temperature prior to use. • 3) Resuspend the CellTiter-Glo® substrate with CellTiter-Glo® buffer, mix by gently vortexing to obtain a homogeneous solution. • 4) Pipette 20 μl the enzyme/substrate mixture by multi-channel pipette into the 96-well assay plates from step 5) under the Compounds titration and treatment stage. • 5) Place the plates on an orbital shaker and mix the contents for 3 minutes to induce cell lysis. • 6) Then allow the plates to incubate at room temperature for 10 minutes to stabilize luminescent signal. • 7) Read and record luminescence signal with EnVision. • 8) The geometric mean EC50 of the compounds were calculated from points response dose with duplicate. In Tables 2 and 4, activity is provided as follows: +++=0.1 nM≤EC50<100 nM; ++=100 nM≤EC50<1000 nM; +=1000 nM≤EC50<10000 nM.

`CNC(=O)Cn1nc(C)c(-c2cc(OC3CN(C(=O)N4N=CC[C@H]4c4cc(F)cc(F)c4)C3)c(F)cn2)c1C` [compound 97, (S)-2-(4-(4-((1-(5-(3,5-difluorophenyl)-4,5-dihydro-1H-pyrazole-1-carbonyl)azetidin-3-yl)oxy)-5-fluoropyridin-2-yl)-3,5-dimethyl-1H-pyrazol-1-yl)-N-methylacetamide] and `Cc1nnn(C)c1-c1cc(OC2CN(C(=O)N3N=CC[C@H]3c3cc(F)cc(F)c3)C2)c(F)cn1` [compound 47, (S)-(5-(3,5-difluorophenyl)-4,5-dihydro-1H-pyrazol-1-yl)(3-((2-(1,4-dimethyl-1H-1,2,3-triazol-5-yl)-5-fluoropyridin-4-yl)oxy)azetidin-1-yl)methanone] fall in the same range of pEC50: 7.00 to 10.00 for the first, 7.00 to 10.00 for the second.

First: Cc1nnc(-c2ccc(F)c(OC3CN(C(=O)N4N=CCC4c4cc(F)cc(F)c4)C3)n2)o1 (stereo not shown) [compound 27, (5-(3,5-difluorophenyl)-4,5-dihydro-1H-pyrazol-1-yl)(3-((3-fluoro-6-(5-methyl-1,3,4-oxadiazol-2-yl)pyridin-2-yl)oxy)azetidin-1-yl)methanone]
Second: Cc1cn(C)c(-c2cc(OC3CN(C(=O)N4N=CC[C@H]4c4cc(F)cc(F)c4)C3)c(F)cn2)n1 [compound 40, (S)-(5-(3,5-difluorophenyl)-4,5-dihydro-1H-pyrazol-1-yl)(3-((2-(1,4-dimethyl-1H-imidazol-2-yl)-5-fluoropyridin-4-yl)oxy)azetidin-1-yl)methanone]
The pEC50 of the first is lower: 6.00 to 7.00 for the first, 7.00 to 10.00 for the second.

`Cn1ncc(C(N)=O)c1-c1ccc(F)c(OC2CN(C(=O)N3N=CCC3c3cc(F)cc(F)c3)C2)c1` (stereo not shown) [compound 115] and `Cn1ncc(C#N)c1-c1ccc(F)c(OC2CN(C(=O)N3N=CCC3c3cc(F)cc(F)c3)C2)c1` (stereo not shown) [compound 114] fall in the same range of pEC50: 7.00 to 10.00 for the first, 7.00 to 10.00 for the second.

`COCCNc1cnn(C)c1-c1cc(OC2CN(C(=O)N3N=CC[C@H]3c3cc(F)cc(F)c3)C2)c(F)cn1` [compound 56, (S)-(5-(3,5-difluorophenyl)-4,5-dihydro-1H-pyrazol-1-yl)(3-((5-fluoro-2-(4-((2-methoxyethyl)amino)-1-methyl-1H-pyrazol-5-yl)pyridin-4-yl)oxy)azetidin-1-yl)methanone] and `Cn1cc(-c2cc(OC3CN(C(=O)N4N=CC[C@H]4c4cc(F)cc(F)c4)C3)c(F)cn2)nn1` [compound 32, (S)-(5-(3,5-difluorophenyl)-4,5-dihydro-1H-pyrazol-1-yl)(3-((5-fluoro-2-(1-methyl-1H-1,2,3-triazol-4-yl)pyridin-4-yl)oxy)azetidin-1-yl)methanone] fall in the same range of pEC50: 7.00 to 10.00 for the first, 7.00 to 10.00 for the second.

`Cn1ncc(C(=O)N2CCOCC2)c1-c1cc(OC2CN(C(=O)N3N=CC[C@H]3c3cc(F)cc(F)c3)C2)c(F)cn1` [compound 77, (S)-(5-(3,5-difluorophenyl)-4,5-dihydro-1H-pyrazol-1-yl)(3-((5-fluoro-2-(1-methyl-4-(morpholine-4-carbonyl)-1H-pyrazol-5-yl)pyridin-4-yl)oxy)azetidin-1-yl)methanone] showed a pEC50 of 5.00 to 6.00.

Same assay, conditions: Homo sapiens; HT-29 cells, FBS free medium, TNF-α (10 ng/ml), SMAC mimetic (6 uM), zVAD-FMK (10 μM), 20 hours; geometric mean EC50; read-out: Cell activity (EC50) of Compounds 117-281

`Cc1nn(-c2cc(OC3CN(C(=O)N4N=CC[C@H]4c4cc(F)cc(F)c4)C3)c(F)cn2)c(C)c1S(=O)(=O)Cc1ccccc1` [compound 236, (S)-(3-((2-(4-(benzylsulfonyl)-3,5-dimethyl-1H-pyrazol-1-yl)-5-fluoropyridin-4-yl)oxy)azetidin-1-yl)(5-(3,5-difluorophenyl)-4,5-dihydro-1H-pyrazol-1-yl)methanone] and `Cc1nn(-c2cc(OC3CN(C(=O)N4N=CC[C@H]4c4cc(F)cc(F)c4)C3)c(F)cn2)c(C)c1S(=O)(=O)Nc1ccccc1` [compound 243, (S)-1-(4-((1-(5-(3,5-difluorophenyl)-4,5-dihydro-1H-pyrazole-1-carbonyl)azetidin-3-yl)oxy)-5-fluoropyridin-2-yl)-3,5-dimethyl-N-phenyl-1H-pyrazole-4-sulfonamide] fall in the same range of pEC50: 7.00 to 10.00 for the first, 7.00 to 10.00 for the second.

Compared with `Cc1c(NCCO)nn(C)c1-c1cc(OC2CN(C(=O)N3N=CC[C@H]3c3cc(F)cc(F)c3)C2)c(F)cn1` [compound 212, (S)-(5-(3,5-difluorophenyl)-4,5-dihydro-1H-pyrazol-1-yl)(3-((5-fluoro-2-(3-((2-hydroxyethyl)amino)-1,4-dimethyl-1H-pyrazol-5-yl)pyridin-4-yl)oxy)azetidin-1-yl)methanone], `CC(O)c1cnn(C)c1-c1cc(OC2CN(C(=O)N3N=CC[C@H]3c3cc(F)cc(F)c3)C2)c(F)cn1` (stereo partly drawn) [compound 179, ((S)-5-(3,5-difluorophenyl)-4,5-dihydro-1H-pyrazol-1-yl)(3-((5-fluoro-2-(4-(1-hydroxyethyl)-1-methyl-1H-pyrazol-5-yl)pyridin-4-yl)oxy)azetidin-1-yl)methanone] is lower in pEC50: 7.00 to 10.00 for the first, 6.00 to 7.00 for the second.

`CN(C)c1cc(-c2cc(OC3CN(C(=O)N4N=CC[C@H]4c4cc(F)cc(F)c4)C3)c(F)cn2)n(C)n1` [compound 166, (S)-(5-(3,5-difluorophenyl)-4,5-dihydro-1H-pyrazol-1-yl)(3-((2-(3-(dimethylamino)-1-methyl-1H-pyrazol-5-yl)-5-fluoropyridin-4-yl)oxy)azetidin-1-yl)methanone] and `CNc1cc(-c2cc(OC3CN(C(=O)N4N=CC[C@H]4c4cc(F)cc(F)c4)C3)c(F)cn2)n(C)n1` [compound 154] fall in the same range of pEC50: 7.00 to 10.00 for the first, 7.00 to 10.00 for the second.

First: CN1CCN(CC(=O)Nc2cnn(C)c2-c2cc(OC3CN(C(=O)N4N=CC[C@H]4c4cc(F)cc(F)c4)C3)c(F)cn2)CC1 [compound 123, (S)—N-(5-(4-((1-(5-(3,5-difluorophenyl)-4,5-dihydro-1H-pyrazole-1-carbonyl)azetidin-3-yl)oxy)-5-fluoropyridin-2-yl)-1-methyl-1H-pyrazol-4-yl)-2-(4-methylpiperazin-1-yl)acetamide]
Second: Cc1cnn(C)c1-c1ccc(F)c(OC2CN(C(=O)N3N=CC[C@H]3c3cc(F)cc(F)c3)C2)c1 [compound 197, (S)-(5-(3,5-difluorophenyl)-4,5-dihydro-1H-pyrazol-1-yl)(3-(5-(1,4-dimethyl-1H-pyrazol-5-yl)-2-fluorophenoxy)azetidin-1-yl)methanone]
The pEC50 of the first is lower: 6.00 to 7.00 for the first, 7.00 to 10.00 for the second. The second is the more potent here.

`CNS(=O)(=O)c1c(C)nn(-c2cc(OC3CN(C(=O)N4N=CC[C@H]4c4cc(F)cc(F)c4)C3)c(F)cn2)c1C` [compound 230, (S)-1-(4-((1-(5-(3,5-difluorophenyl)-4,5-dihydro-1H-pyrazole-1-carbonyl)azetidin-3-yl)oxy)-5-fluoropyridin-2-yl)-N,3,5-trimethyl-1H-pyrazole-4-sulfonamide] and `Cc1nn(CC2CC2)c(C)c1-c1ncc(F)c(OC2CN(C(=O)N3N=CC[C@H]3c3cc(F)cc(F)c3)C2)n1` [compound 158, (S)-(3-((2-(1-(cyclopropylmethyl)-3,5-dimethyl-1H-pyrazol-4-yl)-5-fluoropyrimidin-4-yl)oxy)azetidin-1-yl)(5-(3,5-difluorophenyl)-4,5-dihydro-1H-pyrazol-1-yl)methanone] fall in the same range of pEC50: 7.00 to 10.00 for the first, 7.00 to 10.00 for the second.
